Test results published in US8058247B2 (priority 2006, dated 2011).

Columns and labels:
[1] = tested on: M. bovis BCG Japanese; format: cell-based, Mycobacterium bovis; settings: agar dilution, 3-week incubation at 37° C.; smaller number = higher activity
[2] = tested on: M. avium subsp. avium ATCC25291; assay: Minimum growth inhibitory concentration (MIC), serial dilution on Middlebrook 7H10 agar with mycobactin J; format: cell-based, Mycobacterium avium subsp. avium; settings: 3-week incubation at 37° C., smaller number = higher activity
[3] = tested on: M. avium subsp. paratuberculosis ATCC43015; format: cell-based, Mycobacterium avium subsp. paratuberculosis

| Compound | Minumum growth inhibitory conc. of test compounds, M. bovis BCG Japanese [1] [µg/mL] | Minumum growth inhibitory conc. of test compounds, M. avium subsp. avium ATCC25291 [2] [µg/mL] | Minumum growth inhibitory conc. of test compounds, M. avium subsp. paratuberculosis ATCC43015 [3] [µg/mL] | antibacterial activity against Mycobacterium avium subsp. paratuberculosis compared with the caprazamycin derivatives of Production Examples 1 and 2 [3] |
| --- | --- | --- | --- | --- |
| caprazol-3′″-dodecanoyl ester derivative [Compound VII-F] | 3.13 | 12.5 | 0.78 |  |
| caprazamycin B [CPZ-B] | 6.25 | 12.5 | 3.13 | lower antibacterial activity |
| NNC(=O)c1ccncc1 [INH, isoniazid] | 0.20 | >50 | >50 | lower antibacterial activity |
